Data on 12 compounds can be found in ChEMBL document CHEMBL1201862, “PubChem BioAssay data set” (2004).

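Growth conditions: 96-well plates. Treatment: test compound, 48 hours, 5 concentrations. Analysis: linear interpolation between bracketing concentrations; unreached endpoints set to highest concentration. Abbreviation: GI50, concentration required for 50% inhibition of growth.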 Active and inactive are the calls of the source. No stated cut-off is given here; in the data, active = GI50 up to about 1.1 µM and inactive = higher.

Some test systems named below: A549; EKVX; HCT-15; KM-20L2; Malme-3M; NCI-H23; NCI-H522; OVCAR-3; OVCAR-4; SF-295; SN12C; SNB-19; SW-620; TK-10; U-251; UACC-257; UACC-62.
Holding throughout (assay): DTP human tumour cell line panel, 48 h

What is called GI50 is the concentration at which growth is held to half of that of the control. In the case of `COc1ccc(O)c2c1C(=O)CCCC2=O`, the GI50 was > 100 µM (inactive) in the experiment with A549; 40.1 µM (inactive) in the experiment with EKVX; above 100 µM in the experiment with HCT-15; > 100 µM (inactive) in the experiment on KM-20L2; > 100 µM (inactive) with Malme-3M; > 100 µM (inactive) in the experiment on NCI-H23. Also, the GI50 with NCI-H522, in the experiment on OVCAR-3, in the experiment with OVCAR-4, in the experiment with SF-295, in the experiment on SN12C and in the experiment on SNB-19 was > 100 µM (inactive) in each case. Further, the GI50 in the experiment with SW-620, in the experiment on TK-10, in the experiment on U-251, in the experiment on UACC-257 and in the experiment on UACC-62 was > 100 µM (inactive) throughout.

`O=c1c(Sc2c(O)c3ccccc3c3ccccc3c2=O)c(O)c2ccccc2c2ccccc12`: the GI50 with A549 is 44.6 µM (inactive); in the experiment with EKVX it was 89.3 µM (inactive); with HCT-15, 20.5 µM; with KM-20L2 it was 37.4 µM (inactive); in the experiment with Malme-3M, 25.2 µM (inactive); in the experiment on NCI-H23, 23.7 µM (inactive). The GI50 in the experiment on NCI-H522 was 13.4 µM (inactive); in the experiment with OVCAR-3, 44.6 µM (inactive); with OVCAR-4 it was 41.8 µM (inactive); in the experiment with SF-295 it was 55.7 µM (inactive); in the experiment with SN12C it was 20.9 µM (inactive); in the experiment with SNB-19, 19.3 µM (inactive). Also, the GI50 with SW-620 was 63.8 µM (inactive); in the experiment on TK-10 it was > 100 µM (inactive); in the experiment with U-251, 18.7 µM (inactive); in the experiment on UACC-257 it was 41.9 µM (inactive); in the experiment with UACC-62 it was 29.2 µM (inactive).

For the compound `CN(C)c1nc(Oc2nc(N(C)C)nc(N(C)C)n2)nc(N(C)C)n1`, the GI50 is 67 µM (inactive) in the experiment on A549; > 100 µM (inactive) in the experiment with EKVX; above 100 µM in the experiment with HCT-15; > 100 µM (inactive) in the experiment on KM-20L2; > 100 µM (inactive) in the experiment with Malme-3M; 72.6 µM (inactive) in the experiment on NCI-H23. The GI50 in the experiment with NCI-H522 was 70.8 µM (inactive); with OVCAR-3, 46 µM (inactive); with OVCAR-4, > 100 µM (inactive); in the experiment with SF-295, > 100 µM (inactive); in the experiment with SN12C, > 100 µM (inactive); in the experiment on SNB-19, > 100 µM (inactive). Moreover, the GI50 was > 100 µM (inactive) with SW-620; > 100 µM (inactive) with TK-10; 75.2 µM (inactive) in the experiment with U-251; 56.5 µM (inactive) in the experiment with UACC-257; > 100 µM (inactive) in the experiment with UACC-62.

As to `CC(C)S(=O)(=O)n1c(N)nc2ccc(/C(=N/O)c3ccccc3)cc21` [ENVIROXIME], the GI50 in the experiment on A549 was 14.2 µM (inactive); in the experiment with EKVX, 16.4 µM (inactive); in the experiment on HCT-15 it was 23.4 µM; in the experiment on KM-20L2 it was 16 µM (inactive); in the experiment on Malme-3M, 45.4 µM (inactive); in the experiment on NCI-H23, 21.8 µM (inactive). The GI50 with NCI-H522 is 17.2 µM (inactive); in the experiment on OVCAR-3, 18.6 µM (inactive); with OVCAR-4 it was 23.5 µM (inactive); with SF-295, 18.2 µM (inactive); with SN12C, 27.8 µM (inactive); in the experiment on SNB-19 it was 30 µM (inactive). Further, the GI50 with SW-620 is 21.8 µM (inactive); in the experiment on TK-10, 32.4 µM (inactive); in the experiment on U-251, 39.3 µM (inactive); with UACC-257, 44.5 µM (inactive); in the experiment with UACC-62, 23.1 µM (inactive).

With `CC(C)NC1CCCCC2c3ccccc3C12O` (stereo unspecified), the GI50 in the experiment on A549 is > 100 µM (inactive); with EKVX, > 100 µM (inactive); with HCT-15 it was above 100 µM; in the experiment with KM-20L2 it was > 100 µM (inactive); with Malme-3M, > 100 µM (inactive); in the experiment on NCI-H23, > 100 µM (inactive). For the same compound, the GI50 in the experiment on NCI-H522, with OVCAR-4, in the experiment on SF-295, in the experiment with SN12C, with SNB-19 and in the experiment on SW-620 was > 100 µM (inactive) in each case. For the same compound, the GI50 in the experiment on TK-10, in the experiment with U-251, in the experiment with UACC-257 and in the experiment with UACC-62 was > 100 µM (inactive) throughout.

Turning to `CCCCCCCCCCCc1c(O)c(=O)c2c(oc3c(=O)c(CCCCCCCCCCC)c(O)c(=O)c3n2-c2ccc(N(C)C)cc2)c1=O`, the GI50 is 23.6 µM (inactive) in the experiment on A549; 24 µM (inactive) in the experiment on EKVX; 18.6 µM in the experiment with HCT-15; 19.3 µM (inactive) in the experiment with KM-20L2; 22.4 µM (inactive) with Malme-3M; 28.7 µM (inactive) in the experiment with NCI-H23. Also, the GI50 is 58.3 µM (inactive) with NCI-H522; 18.8 µM (inactive) in the experiment on OVCAR-3; 16.5 µM (inactive) in the experiment on OVCAR-4; 21.8 µM (inactive) in the experiment with SF-295; 19.2 µM (inactive) in the experiment on SN12C; 20.8 µM (inactive) with SNB-19. Also, the GI50 with SW-620 was 24 µM (inactive); in the experiment on TK-10, 15.6 µM (inactive); with U-251, 21.4 µM (inactive); in the experiment on UACC-257, 20 µM (inactive); in the experiment on UACC-62, 18 µM (inactive).

Regarding `CCCCCC#COC1CC(C)CC[C@@H]1C(C)C` (stereo partly specified), the GI50 was 56.5 µM (inactive) in the experiment on A549; 42.7 µM (inactive) with EKVX; above 100 µM with HCT-15; 61.1 µM (inactive) with KM-20L2; > 100 µM (inactive) in the experiment with Malme-3M; > 100 µM (inactive) with NCI-H23. Further, the GI50 in the experiment with NCI-H522 was 24.5 µM (inactive); in the experiment on OVCAR-3, > 100 µM (inactive); with OVCAR-4, > 100 µM (inactive); in the experiment on SF-295, 39.2 µM (inactive); with SN12C it was > 100 µM (inactive); in the experiment with SNB-19, 58.1 µM (inactive). In addition, the GI50 is 18.5 µM (inactive) in the experiment on SW-620; > 100 µM (inactive) with TK-10; 42.3 µM (inactive) with U-251; 46.2 µM (inactive) in the experiment on UACC-257; 62.7 µM (inactive) with UACC-62.

Turning to `CC(O)C1OC(n2ccc(=O)[nH]c2=O)CC1n1cncn1` (stereo unspecified), the GI50 with A549 was > 100 µM (inactive); with EKVX, > 100 µM (inactive); in the experiment with HCT-15, above 100 µM; with KM-20L2 it was > 100 µM (inactive); in the experiment with Malme-3M it was > 100 µM (inactive); in the experiment on NCI-H23, > 100 µM (inactive). For the same compound, the GI50 with NCI-H522, with OVCAR-3, in the experiment on OVCAR-4, in the experiment on SF-295, with SN12C and with SNB-19 was > 100 µM (inactive) each time. Moreover, the GI50 with SW-620, with TK-10, in the experiment with U-251, in the experiment on UACC-257 and in the experiment on UACC-62 was > 100 µM (inactive) each time.

Take `C/C(=N\NS(=O)(=O)c1ccc(C)cc1)C(CN1CCCCC1)C(c1ccccc1)c1c(O)c2ccccc2oc1=O` (stereo unspecified): the GI50 with A549 was > 100 µM (inactive); in the experiment with EKVX, > 100 µM (inactive); in the experiment on HCT-15, above 100 µM; in the experiment on KM-20L2, > 100 µM (inactive); with Malme-3M it was > 100 µM (inactive); with NCI-H23 it was > 100 µM (inactive). The GI50 in the experiment with NCI-H522 is 80.9 µM (inactive); in the experiment with OVCAR-3, > 100 µM (inactive); in the experiment on OVCAR-4, > 100 µM (inactive); in the experiment with SF-295, > 100 µM (inactive); with SN12C, > 100 µM (inactive); in the experiment with SNB-19 it was > 100 µM (inactive). The GI50 in the experiment on SW-620 is 70.6 µM (inactive); in the experiment on TK-10, > 100 µM (inactive); in the experiment with U-251, > 100 µM (inactive); in the experiment on UACC-257, > 100 µM (inactive); in the experiment on UACC-62 it was > 100 µM (inactive).

Turning to `CCCCC[C@@H]1CCCC2NC(CCCCCO[Si](c3ccccc3)(c3ccccc3)C(C)(C)C)CCC21` (stereo partly specified), the GI50 in the experiment with A549 is 17.5 µM (inactive); in the experiment with EKVX, 17.3 µM (inactive); with HCT-15, 11.7 µM; in the experiment with KM-20L2, 10.6 µM (inactive); in the experiment on Malme-3M, 19.1 µM (inactive); in the experiment on NCI-H23 it was 15.7 µM (inactive). Also, the GI50 was 15 µM (inactive) in the experiment with NCI-H522; 16.6 µM (inactive) in the experiment on OVCAR-3; 8.67 µM (inactive) with OVCAR-4; 16.9 µM (inactive) in the experiment on SF-295; 14.7 µM (inactive) with SN12C; 17.3 µM (inactive) in the experiment with SNB-19. The GI50 with SW-620 was 14.6 µM (inactive); in the experiment on TK-10 it was 18.7 µM (inactive); in the experiment on U-251, 14.1 µM (inactive); in the experiment on UACC-257, 15.2 µM (inactive); in the experiment with UACC-62, 19.5 µM (inactive).

`Nc1nc(SCC(=O)c2ccccc2)c2[nH]cnc2n1`: the GI50 with A549 was > 100 µM (inactive); with HCT-15, above 100 µM; in the experiment with KM-20L2, > 100 µM (inactive); in the experiment with Malme-3M, > 100 µM (inactive); in the experiment on NCI-H23, > 100 µM (inactive); in the experiment on NCI-H522, > 100 µM (inactive). For the same compound, the GI50 in the experiment with OVCAR-3, in the experiment with OVCAR-4, with SF-295, in the experiment on SN12C, with SNB-19 and in the experiment on SW-620 was > 100 µM (inactive) throughout. For the same compound, the GI50 in the experiment on TK-10, with U-251, in the experiment with UACC-257 and with UACC-62 was > 100 µM (inactive) throughout.

For the compound `C1=c2ccccc2=C2C(=C(c3ccccc3)C(c3ccccc3)=NN2c2ccccc2)S1`, the GI50 was > 100 µM (inactive) in the experiment with A549; > 100 µM (inactive) with EKVX; above 100 µM in the experiment with HCT-15; > 100 µM (inactive) in the experiment on KM-20L2; > 100 µM (inactive) in the experiment on Malme-3M; > 100 µM (inactive) in the experiment with NCI-H23. Moreover, the GI50 in the experiment with NCI-H522 is > 100 µM (inactive); in the experiment on OVCAR-4, > 100 µM (inactive); in the experiment on SF-295, > 100 µM (inactive); in the experiment on SN12C, > 100 µM (inactive); with SNB-19, > 100 µM (inactive); with SW-620, 91.4 µM (inactive). The GI50 in the experiment on TK-10 was > 100 µM (inactive); in the experiment on U-251, 46.7 µM (inactive); with UACC-257, > 100 µM (inactive); in the experiment with UACC-62 it was > 100 µM (inactive).
